# Assay results reported in patent publication US20260174682A1, “GAMMA-AMINOBUTYRIC ACID DERIVATIVE COMPRISING POLYCYCLIC STRUCTURE, METHOD FOR PREPARING SAME, AND USE THEREOF” (ZHONGSHAN INSTITUTE FOR DRUG DISCOVERY, SIMM, CAS., priority 2022, published 2026).
# Molecular target: T1, human recombinant calcium ion channel Cav2.2/β3/α2δ-1 (Homo sapiens, UniProt P54289)
# T1 construct: expressed in transfected cells; host or cells: CHO cells (membranes)
# Assay: In vitro binding to human recombinant calcium ion channel Cav2.2/β3/α2δ-1 ([3H]gabapentin competition)
# From the text: Example 28 In Vitro Binding of Compounds to Human Recombinant Calcium Ion Channel Cav2.2/β3/α2δ-1
# There are four subtypes of the voltage-gated calcium ion channel α2δ subunit, α2δ-1, α2δ-2, α2δ-3 and α2δ-4, in which α2δ-1 is the subtype that mediates chronic neuropathic pain (Field, M. J. et al.; Proc. Natl. Acad. Sci. U.S.A. 2006, 103, 17537-17542). Therefore, the binding strength of a compound to α2δ-1 is a direct indicator for measuring an analgesic effect thereof on the chronic neuropathic pain (Calandre, E. P. et al.; Expert Rev. Neuroether. 2016, 16, 1263-1277).
# The in vitro binding strength of the compound of the present application to human recombinant calcium ion channel Cav2.2/β3/α2δ-1 is basically operated according to a reported method (Gee, N. S. et al.; J. Biol. Chem. 1996, 271, 5768-5776; Marais, E. et al.; Mol. Pharmacol. 2001, 59, 1243-1248). CHO cells expressing the human recombinant calcium ion channel Cav2.2/β3/α2δ-1 were used in the test. After routine separation of cell membranes, 3 μg of the cell membranes were added into each well with a modified HEPES/KOH buffer solution (pH 7.4) as a solution of the test system. Then, 5 nM [^3H]gabapentin and the compound to be tested at 6 concentrations (3, 9, 27, 81, 243, and 729 nM) were added, and the test system was incubated at 25° C. for 120 min. Non-specific binding was obtained by replacing the compound to be tested in the above test system with […] gabapentin. After the incubation was completed, the cell membranes were collected by filtration and washed with 50 mM Tris-HCl (pH 7.4), and then the radioactivity of [^3H]gabapentin bound to the cell membranes was tested by a liquid scintillation technology. […] An inhibition rate of the compound of the present application on the binding of the [^3H]gabapentin to the human recombinant calcium ion channel Cav2.2/β3/α2δ-1 was calculated according to the following formula: […]
# wherein • I is the radioactivity corresponding to that the compound to be tested and [^3H]gabapentin are simultaneously co-incubated with the human recombinant calcium ion channel Cav2.2/β3/α2δ-1, • I0 is the radioactivity corresponding to co-incubation of [^3H]gabapentin and the human recombinant calcium ion channel Cav2.2/β3/α2δ-1 without adding the compound to be tested into the incubation system, and • IU is the radioactivity corresponding to that 10 μM gabapentin and [^3H]gabapentin are simultaneously co-incubated with the human recombinant calcium ion channel Cav2.2/β3/α2δ-1.
# The concentration of the compound to be tested that inhibits 50% of the binding of [^3H]gabapentin to the human recombinant calcium ion channel Cav2.2/β3/α2δ-1 is defined as IC50, and the IC50 is calculated by nonlinear least squares regression analysis using the above inhibition rate (MathIQ™, ID Business Solutions Ltd., UK).
# T1 sequence (P54289 25-956 limits assumed): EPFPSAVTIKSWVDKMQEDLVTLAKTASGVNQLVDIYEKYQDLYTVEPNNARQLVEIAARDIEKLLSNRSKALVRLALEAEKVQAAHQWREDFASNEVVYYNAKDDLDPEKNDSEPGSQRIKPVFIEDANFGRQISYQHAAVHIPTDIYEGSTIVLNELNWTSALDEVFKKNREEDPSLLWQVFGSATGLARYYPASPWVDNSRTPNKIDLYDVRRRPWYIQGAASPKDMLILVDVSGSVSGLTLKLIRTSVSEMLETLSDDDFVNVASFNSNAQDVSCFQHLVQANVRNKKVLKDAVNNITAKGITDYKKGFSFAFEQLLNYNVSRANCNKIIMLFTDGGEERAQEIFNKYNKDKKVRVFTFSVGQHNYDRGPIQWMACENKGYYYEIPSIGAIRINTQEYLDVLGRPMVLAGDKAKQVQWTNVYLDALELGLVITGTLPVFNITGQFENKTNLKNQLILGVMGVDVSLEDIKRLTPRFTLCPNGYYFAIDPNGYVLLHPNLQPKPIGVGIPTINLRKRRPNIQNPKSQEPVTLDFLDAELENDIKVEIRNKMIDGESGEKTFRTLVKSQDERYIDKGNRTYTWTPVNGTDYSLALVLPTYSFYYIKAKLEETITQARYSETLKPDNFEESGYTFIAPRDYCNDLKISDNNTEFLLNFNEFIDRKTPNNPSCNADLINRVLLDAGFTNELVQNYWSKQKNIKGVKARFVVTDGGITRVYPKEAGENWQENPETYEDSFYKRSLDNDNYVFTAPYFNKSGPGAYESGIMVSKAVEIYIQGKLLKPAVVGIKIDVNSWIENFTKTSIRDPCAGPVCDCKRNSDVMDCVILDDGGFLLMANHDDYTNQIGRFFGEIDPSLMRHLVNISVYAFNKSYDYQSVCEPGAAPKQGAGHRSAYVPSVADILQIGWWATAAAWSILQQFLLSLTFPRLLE
# T1 sequence (P54289 957-1103 partner limits assumed): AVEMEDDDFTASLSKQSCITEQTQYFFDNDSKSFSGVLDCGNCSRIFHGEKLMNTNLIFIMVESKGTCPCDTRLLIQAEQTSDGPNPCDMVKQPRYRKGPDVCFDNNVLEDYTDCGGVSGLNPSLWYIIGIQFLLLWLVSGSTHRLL
# T1 sequence (Q00975 whole entry partner): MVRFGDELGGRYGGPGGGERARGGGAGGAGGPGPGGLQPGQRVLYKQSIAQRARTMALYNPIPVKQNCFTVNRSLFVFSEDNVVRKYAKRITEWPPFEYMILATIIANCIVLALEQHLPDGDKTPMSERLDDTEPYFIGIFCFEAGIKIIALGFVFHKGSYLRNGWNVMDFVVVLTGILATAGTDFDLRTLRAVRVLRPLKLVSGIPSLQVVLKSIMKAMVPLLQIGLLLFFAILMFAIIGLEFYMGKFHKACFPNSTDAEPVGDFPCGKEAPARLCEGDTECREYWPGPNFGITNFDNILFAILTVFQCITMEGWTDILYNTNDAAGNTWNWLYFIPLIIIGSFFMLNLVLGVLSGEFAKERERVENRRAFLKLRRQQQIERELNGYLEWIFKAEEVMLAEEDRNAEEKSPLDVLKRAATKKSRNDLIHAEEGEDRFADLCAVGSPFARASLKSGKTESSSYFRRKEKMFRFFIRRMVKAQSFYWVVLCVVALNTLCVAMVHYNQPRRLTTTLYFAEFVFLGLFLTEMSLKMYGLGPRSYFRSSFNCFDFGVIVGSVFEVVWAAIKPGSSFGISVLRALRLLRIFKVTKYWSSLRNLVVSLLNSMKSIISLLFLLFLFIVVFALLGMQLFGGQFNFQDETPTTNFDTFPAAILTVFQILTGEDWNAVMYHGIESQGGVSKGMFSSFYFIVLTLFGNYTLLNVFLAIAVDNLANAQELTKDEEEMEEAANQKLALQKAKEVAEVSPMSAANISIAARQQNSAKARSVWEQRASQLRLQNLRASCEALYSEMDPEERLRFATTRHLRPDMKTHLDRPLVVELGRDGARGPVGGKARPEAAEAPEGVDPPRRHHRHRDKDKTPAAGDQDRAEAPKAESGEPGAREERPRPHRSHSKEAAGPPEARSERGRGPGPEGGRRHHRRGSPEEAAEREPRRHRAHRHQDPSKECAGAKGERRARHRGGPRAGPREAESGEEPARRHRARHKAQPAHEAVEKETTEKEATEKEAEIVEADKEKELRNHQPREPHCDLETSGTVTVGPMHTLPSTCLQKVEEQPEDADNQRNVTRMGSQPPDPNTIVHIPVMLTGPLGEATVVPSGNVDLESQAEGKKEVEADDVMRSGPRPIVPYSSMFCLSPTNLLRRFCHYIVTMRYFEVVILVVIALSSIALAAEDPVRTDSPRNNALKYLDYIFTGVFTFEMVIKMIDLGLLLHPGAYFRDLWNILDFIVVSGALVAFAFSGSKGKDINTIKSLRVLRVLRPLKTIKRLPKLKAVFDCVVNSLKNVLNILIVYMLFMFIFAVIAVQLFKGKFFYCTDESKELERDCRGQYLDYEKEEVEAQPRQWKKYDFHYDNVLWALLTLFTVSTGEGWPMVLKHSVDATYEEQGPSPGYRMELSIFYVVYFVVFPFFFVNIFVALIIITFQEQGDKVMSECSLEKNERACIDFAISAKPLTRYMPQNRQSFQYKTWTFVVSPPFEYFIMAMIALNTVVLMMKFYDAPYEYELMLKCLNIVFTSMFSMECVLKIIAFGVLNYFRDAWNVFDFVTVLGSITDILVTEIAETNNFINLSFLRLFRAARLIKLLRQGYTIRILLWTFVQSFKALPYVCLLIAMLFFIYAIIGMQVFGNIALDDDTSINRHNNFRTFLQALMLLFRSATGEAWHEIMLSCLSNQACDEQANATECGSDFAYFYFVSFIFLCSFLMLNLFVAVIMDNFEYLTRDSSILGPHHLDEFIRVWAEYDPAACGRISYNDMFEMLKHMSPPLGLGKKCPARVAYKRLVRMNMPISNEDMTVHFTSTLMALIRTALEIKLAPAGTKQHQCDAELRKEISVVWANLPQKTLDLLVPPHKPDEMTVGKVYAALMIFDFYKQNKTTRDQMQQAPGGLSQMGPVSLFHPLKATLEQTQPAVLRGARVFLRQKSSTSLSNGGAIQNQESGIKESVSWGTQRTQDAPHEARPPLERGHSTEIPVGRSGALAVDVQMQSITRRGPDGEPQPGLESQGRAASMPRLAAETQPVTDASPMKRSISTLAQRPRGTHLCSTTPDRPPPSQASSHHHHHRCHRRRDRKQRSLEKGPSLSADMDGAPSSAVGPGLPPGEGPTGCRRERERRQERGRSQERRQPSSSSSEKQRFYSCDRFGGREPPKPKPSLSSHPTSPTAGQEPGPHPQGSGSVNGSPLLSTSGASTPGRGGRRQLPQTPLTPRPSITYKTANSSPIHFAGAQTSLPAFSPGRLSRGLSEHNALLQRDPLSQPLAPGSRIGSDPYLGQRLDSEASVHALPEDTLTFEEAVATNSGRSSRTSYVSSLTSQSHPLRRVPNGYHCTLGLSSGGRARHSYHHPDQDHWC
# T1 sequence (P54284 whole entry partner): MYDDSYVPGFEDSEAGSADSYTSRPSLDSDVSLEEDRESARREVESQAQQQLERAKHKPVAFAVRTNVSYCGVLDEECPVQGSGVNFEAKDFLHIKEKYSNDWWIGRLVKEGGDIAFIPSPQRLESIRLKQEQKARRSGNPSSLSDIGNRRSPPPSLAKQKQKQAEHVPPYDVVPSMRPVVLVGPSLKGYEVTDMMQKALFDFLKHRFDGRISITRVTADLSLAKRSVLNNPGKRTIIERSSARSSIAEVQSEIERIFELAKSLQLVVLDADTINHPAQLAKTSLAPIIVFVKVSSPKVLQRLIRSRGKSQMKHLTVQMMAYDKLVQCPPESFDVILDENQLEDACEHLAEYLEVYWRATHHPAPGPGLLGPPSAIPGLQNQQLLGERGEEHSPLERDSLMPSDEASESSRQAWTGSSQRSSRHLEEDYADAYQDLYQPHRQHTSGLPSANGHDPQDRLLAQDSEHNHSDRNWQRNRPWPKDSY
smiles,measurement,value
CC(C)C[C@H](CN)CC(=O)O [Pregabalin],IC50,38 nM
